# Results as given in US20080027052A1, “METHODS FOR TREATING CYSTIC KIDNEY DISEASE” (priority 2006, published 2008).
# Experiments:
# Assay type in all cases: in vivo
# male Cy/+ rat [1] = test: Blood laboratory values in male Cy/+ rats treated from week 20; settings: for BUN / Calcium / Phosphorus / PTH: 38 week time point, treatment from week 20; for PTH: Compound A 0.05% w/w in chow, 3% Ca gluconate in water, mean ± SD
# Excerpt: (§1) The Cy rat is a Han:SPRD rat with a spontaneous genetic mutation called Cy. These animals develop progressive kidney disease due to the formation of multiple kidney tubule cysts that arise from both the proximal and later the distal tubule. The colony of rats has been maintained through successive breeding of two heterozygous Cy/+ rats. This is an autosomal dominant gene, such that at birth, ¼ of the animals are normal, ½ are heterozygotes (Cy/+) and ¼ are homozygotes (Cy/Cy). Homozygotes (Cy/Cy) of either sex are easily identified after approximately 10 days of age by abdominal palpation and elevations in blood urea nitrogen (BUN), a finding used to verify parental heterozygosity for PKD. Homozygous Cy/Cy rats develop massively enlarged kidneys and severe azotemia and die by 4 weeks of age. Heterozygote male animals develop progressive chronic kidney disease (CKD) with rise in blood urea nitrogen (BUN) by 10 weeks and death from uremia by 40-50 weeks. Heterozygote female animals develop progressive CKD with rise in BUN not detected until 20 weeks, with death at 80 weeks. […] Average food intake was 50 g/kg/day. At the time of sacrifice, rats were anesthetized with sodium pentobarbitol ([…], i.p.) and weighed. Blood was obtained for determination of serum creatinine, BUN, intact PTH, Ca and PO4. The left kidney was removed, weighed and frozen in liquid nitrogen for subsequent batch analyses. The right kidney was perfusion fixed with 4% paraformaldehyde in phosphate buffer (ph 7.4). The tissue was embedded in paraffin for histological studies. Cyst volume density was determined by point count stereology from randomly selected fields from hematoxylin and cosin (H&E) stained slides. Fibrosis was graded semi-quantitatively (scored 0-4+) from picrosirius red stained slides. The reviewer was blinded to the treatment group. Both measure were also standardized by body weight (for cyst volume) or kidney weight (for fibrosis). Plasma urea and creatinine were determined using colorimetric assays (Urea-Sigma 640 creatinine kit). Intact PTH was determined by ELISA; Alpacoa, and Ca and PO4 were done with using colorimeteric analyses (Sigma). Cy−/+ (cystic) male rats were assigned to one of four treatment groups (Table 5) and were phenotyped (by BUN) at 10 weeks and again at 20 weeks to ensure animals were cystic. […] Comparator groups included Compound A with calcium in the drinking water versus calcium alone. These comparator groups allow differentiation of the effects of changes in PTH and calcium from a direct action of the calcimimetic. FIG. 1 schematically represents the study design. At 10 weeks, animals were phenotyped. At 20 weeks, animals were started on the treatment arm. Half the animals were sacrificed at 34 weeks, half the animals were sacrificed 38 weeks. At each time point, samples from 8 animals were perfusion fixed with paraformaldehyde for CT scan, bone histology and aorta histology, samples from 8 animals were saline perfused for HCl extraction to determine calcium and phosphate content, and blood samples from 16 animals were collected for blood tests (PTH, calcium, phosphorus, BUN). Animals in the paraformaldehyde fixation group received tetracycline administration four and one week prior to sacrifice to label the bone for morphometric analyses. For the purpose of this application, only the laboratory and kidney end points will be presented. All data was analyzed by a statistician. The BUN was analyzed only at week 20 and end point (week 34 or 38) and was analyzed by ANCOVA adjusting for baseline (week 20) values. The PTH, calcium, and phosphorus were analyzed at baseline (week 20), a mid point, and end point (week 34, 38). These values were compared by a mixed model adjusting for baseline values and time point. The kidney assessments were only measured at end point at the time of sacrifice, and therefore the measures were compared by ANCOVA and within group comparisons.
# male Cy/+ rat [2] = test: Kidney assessment (cyst volume, fibrosis, kidney weight, histology) in male Cy/+ rats; settings: for Cyst Vol / Cyst Vol as a % of BW / Total Kidney weight: at sacrifice; for Cyst Vol / Cyst Vol as a % of BW / Total Kidney weight / Fibrosis Score: n = 7-8, mean ± SD; for Histologic appearance of the cysts (FIG. 7): representative kidney sections, compared with control cystic animals; for Fibrosis Score: semi-quantitative score 0-4+, picrosirius red
# Excerpt: as §1, with “fibrosis). Four micron transverse tissue section of the kidney, including cortex” for “fibrosis). Plasma urea”, “and medulla, was stained with hematoxylin-cosin. Five fields/sections, from cortex through outer medulla,” for “and creatinine”, “were evaluated for the degree of cystic change. Other sections were stained with picrosirius red for the evaluation of fibrosis. Fibrosis” for “were determined using colorimetric assays (Urea-Sigma 640 creatinine kit). Intact PTH”, “was scored (0-4+) for the relative amount of collagen within the interstitium from picrosirius red staining of collagen fibers. These assessments are the standard methods used to assess response to therapy in animal models of kidney disease (Gattone et al, Nature Medicine 9: 1323-6, 2003).” for “was determined by ELISA; Alpacoa, and Ca and PO4 were done with using colorimeteric analyses (Sigma).”, “values. […]” for “values. The PTH, calcium, and phosphorus were analyzed at baseline (week 20), a mid point, and end point (week 34, 38). These values were compared by a mixed model adjusting for baseline values and time point. The kidney assessments were only measured at end point at the time of sacrifice, and therefore the measures were compared by ANCOVA and within group comparisons.”
# male Cy/+ rat [3] = test: as above; settings: ANOVA with post group comparisons, all p<0.01, HCl
smiles,measurement,setting,value
"O=C([O-])[C@H](O)[C@@H](O)[C@H](O)[C@H](O)CO.O=C([O-])[C@H](O)[C@@H](O)[C@H](O)[C@H](O)CO.[Ca+2] [Ca alone, reference compound]",BUN,male Cy/+ rat [1],69 ± 18 mg/dL
same,Calcium,male Cy/+ rat [1],11.2 ± 1.5 mg/dL
same,Phosphorus,male Cy/+ rat [1],4.3 ± 0.8 mg/dL
same,PTH,male Cy/+ rat [1],39 ± 23 pg/mL
same,Change in BUN (week 20 to week 38) = Delta BUN,male Cy/+ rat [1],27 ± 11 mg/dL
same,Cyst Vol,male Cy/+ rat [2],4.0 ± 0.9 cc
same,Cyst Vol as a % of BW,male Cy/+ rat [2],0.9 ± 0.2%
same,Total Kidney weight,male Cy/+ rat [2],10.1 ± 1.4 g
same,Histologic appearance of the cysts (FIG. 7),male Cy/+ rat [2],cysts are a little smaller than control animals but there appears to be a similar number
same,Fibrosis Score,male Cy/+ rat [2],2.8 ± 0.2
"COc1cccc([C@@H](C)NCCCc2ccccc2Cl)c1.Cl [Compound A, N-(3-[2-chlorophenyl]-propyl)-R-α-methyl-3-methoxybenzylamine HCl]",BUN,male Cy/+ rat [1],79 ± 21 mg/dL
same,Calcium,male Cy/+ rat [1],8.2 ± 1.5 mg/dL
same,Phosphorus,male Cy/+ rat [1],5.9 ± 1.4 mg/dL
same,PTH,male Cy/+ rat [1],131 ± 156 pg/mL
same,Change in BUN (week 20 to week 38) = Delta BUN,male Cy/+ rat [1],31 ± 15 mg/dL
same,Cyst Vol,male Cy/+ rat [2],3.1 ± 0.55 cc
same,Cyst Vol as a % of BW,male Cy/+ rat [2],0.6 ± 0.1%
same,Total Kidney weight,male Cy/+ rat [2],9.5 ± 1.4 g
same,Histologic appearance of the cysts (FIG. 7),male Cy/+ rat [2],noticeable decrease in cyst size and number
same,Fibrosis Score,male Cy/+ rat [2],2.6 ± 0.2
same,Cyst volume and fibrosis compared to control (FIGS. 3-6),male Cy/+ rat [3],reduces cyst volume and fibrosis
same,Cyst volume and fibrosis compared to control (FIGS. 3-6),male Cy/+ rat [3]; listed as compound A,magnitude was significantly greater
